The source made the active and inactive calls.
Tests used:
[1] = molecular target: Peroxisome proliferator-activated receptor gamma/Nuclear receptor coactivator 1 (Homo sapiens, UniProt P37231); test: (§1) TR-FRET dose response biochemical High Throughput Screening assay for agonists of the steroid receptor coactivator 1 (SRC-1) recruitment by the peroxisome proliferator-activated receptor gamma (PPAR gamma): non-selective agonists. [Related pubchem assays (depositor defined):AID1300, AID1808, AID504735, AID631]; assay type: protein assay
[2] = molecular target: Peroxisome proliferator-activated receptor gamma/Nuclear receptor coactivator 3 (Homo sapiens, UniProt P37231); test: as §1, with “3 (SRC-3)” for “1 (SRC-1)”, “assays: 1301 (Confirmation screen.), 1048 (Primary screen.)]” for “assays (depositor defined):AID1300, AID1808, AID504735, AID631]”; assay type: functional
[3] = molecular target: Peroxisome proliferator-activated receptor gamma/Nuclear receptor coactivator 2 (Homo sapiens, UniProt P37231); test: TR-FRET dose response biochemical High Throughput Screening assay for agonists of the steroid receptor coactivator 2 (SRC-2) recruitment by the peroxisome proliferator-activated receptor gamma (PPAR gamma): non-selective agonists. [Related pubchem assays: 1297, 1032 ]; assay type: functional
[4] = growth suppression of PTEN-null colon cells, dose response, cell-based, HCT116 PTEN knockout (AID 1047); assay type: functional;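 further: HCT116 colon tumor cells with PTEN knocked out; cells exposed to compound for 60 hours before readout; potency for loss of cell viability measured by luminescence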
[5] = growth suppression of beta-catenin-knockout colon cells, dose response, cell-based, HCT116, human colon tumor (AID 1045); assay type: functional;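 further: HCT116 colon tumor cells with beta catenin knocked out; cells exposed to compound for 60 hours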
[6] = Luminescence Cell-Based Dose Retest to Confirm Inhibitors of Cancer Stem Cells. [Related pubchem assays (depositor defined):AID2717, AID2721]; assay type: functional; conditions: Homo sapiens
[7] = molecular target: T1, Microphthalmia-associated transcription factor (Homo sapiens, UniProt O75030); test: TRPM1 promoter luciferase signal decrease, dose response, MITF inhibitor project, cell-based, SK-MEL-5, cherry-picked, set 3 (AID 493073); assay type: functional
T1 sequence (O75030 whole entry): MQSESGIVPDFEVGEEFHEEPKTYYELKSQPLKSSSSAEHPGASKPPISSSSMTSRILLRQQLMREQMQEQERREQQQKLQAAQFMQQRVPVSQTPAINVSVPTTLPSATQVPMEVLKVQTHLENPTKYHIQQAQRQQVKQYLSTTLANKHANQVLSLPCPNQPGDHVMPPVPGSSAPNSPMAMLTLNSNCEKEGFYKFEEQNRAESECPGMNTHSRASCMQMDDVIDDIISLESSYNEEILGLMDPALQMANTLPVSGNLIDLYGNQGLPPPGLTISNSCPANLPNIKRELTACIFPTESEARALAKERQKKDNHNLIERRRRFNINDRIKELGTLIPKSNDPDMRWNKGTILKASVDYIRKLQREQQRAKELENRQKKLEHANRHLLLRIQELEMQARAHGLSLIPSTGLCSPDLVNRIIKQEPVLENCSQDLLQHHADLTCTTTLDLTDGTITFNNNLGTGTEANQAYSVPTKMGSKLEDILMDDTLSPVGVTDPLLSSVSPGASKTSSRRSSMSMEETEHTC

INS1 = test: beta cell apoptosis inhibitors, cytokine rescue, dose response, luminescence, retest (AID 449756); assay type: functional, cell-based; conditions: Rattus norvegicus;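 further: cell death triggered by IL-1 beta plus TNF-alpha plus IFN-gamma mixture; protective hits raise ATP signal compared with cytokine alone wells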
Paired box protein Pax-8 = Paired box protein Pax-8 (Homo sapiens, UniProt Q06710); test: inhibitors of PAX8-driven TPO luciferase reporter, dose response, RMG-I cells, cherry-pick (AID 687027); assay type: functional, cell-based;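 further: luciferase reporter driven by Pax8 target thyroperoxidase promoter measured by SteadyGlo luminescence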
[8] = inhibitors of intracellular T. cruzi replication, confirmation, NIH3T3 host cells, beta-gal luminescence (AID 2044); assay type: functional, cell-based;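 further: intracellular parasites grown in NIH/3T3 mouse fibroblasts as host cells; luminescent beta-galactosidase reporter signal from transgenic T. cruzi replicating inside host cells; inhibitors lower the luminescence signal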
[9] = cytotoxicity toward NIH3T3 fibroblasts, dose response, counter-screen, cell-based, ATP luminescence, mouse fibroblasts (AID 2010); assay type: functional;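 further: cells exposed to compound for about 90 hours before reading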
Melanocortin receptor 4 = Melanocortin receptor 4 (Homo sapiens, UniProt P32245); test: MC4R antagonist potency on cAMP, dose response, cell-based, TR-FRET, biased antagonists (AID 602298); assay type: functional;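 further: antagonist potency against agonist-stimulated cAMP production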
[10] = nonselective inhibitors of cellular cAMP signaling, dose response, counter-screen for MC4R biased antagonist project, cell-based, TR-FRET cAMP detection (AID 602305); assay type: functional;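 further: U2OS cells stimulated with forskolin near its EC80 as the cAMP inducer; potency is for inhibition of forskolin-stimulated cAMP signaling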
Protein skinhead-1 = molecular target: T2, Protein skinhead-1 (Caenorhabditis elegans, UniProt P34707); assay type: functional
T2 sequence (P34707 whole entry): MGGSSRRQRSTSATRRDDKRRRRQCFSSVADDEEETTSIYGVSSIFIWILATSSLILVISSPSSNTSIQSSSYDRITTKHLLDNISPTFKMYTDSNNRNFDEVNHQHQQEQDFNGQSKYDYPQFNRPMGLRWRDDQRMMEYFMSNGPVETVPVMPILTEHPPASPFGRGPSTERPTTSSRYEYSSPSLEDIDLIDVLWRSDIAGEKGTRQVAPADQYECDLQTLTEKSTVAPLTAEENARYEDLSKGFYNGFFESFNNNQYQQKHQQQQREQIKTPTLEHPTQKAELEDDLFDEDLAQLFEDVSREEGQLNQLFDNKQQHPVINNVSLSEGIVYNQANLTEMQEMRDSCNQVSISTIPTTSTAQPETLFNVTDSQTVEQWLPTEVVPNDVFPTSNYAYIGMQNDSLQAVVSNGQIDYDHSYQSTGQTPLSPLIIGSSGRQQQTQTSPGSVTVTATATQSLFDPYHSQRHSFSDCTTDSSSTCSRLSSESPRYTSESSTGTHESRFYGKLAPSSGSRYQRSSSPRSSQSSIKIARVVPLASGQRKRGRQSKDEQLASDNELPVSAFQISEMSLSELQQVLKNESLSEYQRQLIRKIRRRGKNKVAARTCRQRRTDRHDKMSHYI

[11] = molecular target: T3, Short transient receptor potential channel 4 (Mus musculus, UniProt Q9QUQ5); test: mouse TRPC4 channel inhibitors, dose response, cell-based, HEK293 TRPC4/mu-opioid, Fluo-4 calcium (AID 434942); assay type: functional;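 further: potency of inhibitors blocking the TRPC4 calcium response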
T3 sequence (Q9QUQ5 whole entry): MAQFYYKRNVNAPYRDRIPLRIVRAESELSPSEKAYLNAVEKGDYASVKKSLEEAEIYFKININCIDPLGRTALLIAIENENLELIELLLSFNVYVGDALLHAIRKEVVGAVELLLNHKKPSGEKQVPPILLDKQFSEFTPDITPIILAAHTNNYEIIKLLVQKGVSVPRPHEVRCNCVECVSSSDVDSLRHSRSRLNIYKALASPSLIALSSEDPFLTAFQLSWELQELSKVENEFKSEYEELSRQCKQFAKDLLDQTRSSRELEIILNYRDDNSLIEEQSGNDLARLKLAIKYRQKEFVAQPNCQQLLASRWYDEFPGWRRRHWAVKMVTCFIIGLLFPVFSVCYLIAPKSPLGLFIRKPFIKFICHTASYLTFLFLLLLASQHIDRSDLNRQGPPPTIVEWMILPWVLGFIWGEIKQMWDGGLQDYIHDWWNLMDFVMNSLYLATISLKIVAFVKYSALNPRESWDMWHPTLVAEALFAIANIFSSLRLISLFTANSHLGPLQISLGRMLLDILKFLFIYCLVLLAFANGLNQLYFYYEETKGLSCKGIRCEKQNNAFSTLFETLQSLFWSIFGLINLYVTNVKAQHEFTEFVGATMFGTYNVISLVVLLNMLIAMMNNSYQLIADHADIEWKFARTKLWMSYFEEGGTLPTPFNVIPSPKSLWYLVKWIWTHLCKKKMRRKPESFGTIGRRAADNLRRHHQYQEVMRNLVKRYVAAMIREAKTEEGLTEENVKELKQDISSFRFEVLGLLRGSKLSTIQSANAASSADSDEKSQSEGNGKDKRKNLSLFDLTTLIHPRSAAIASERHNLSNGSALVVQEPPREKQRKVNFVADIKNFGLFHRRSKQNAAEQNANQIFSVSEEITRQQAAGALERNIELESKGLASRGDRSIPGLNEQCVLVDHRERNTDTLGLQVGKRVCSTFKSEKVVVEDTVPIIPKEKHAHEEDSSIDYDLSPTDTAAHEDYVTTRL

[12] = tested on: Streptococcus sp. 'group A'; test: growth inhibition of control SK(-) GAS strain, dose response, counter-screen for streptokinase expression inhibitor project, luminescence, kanamycin, BacTiterGlo, confirmation (AID 1900); assay type: functional, organism-based
Streptokinase A = molecular target: T4, Streptokinase A (Streptococcus pyogenes serotype M1, UniProt P10520); test: S. pyogenes streptokinase expression inhibitors, potency, dose response, plasminogen activation absorbance, OD405 (AID 1914); assay type: functional, Streptococcus pyogenes M1 GAS;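 further: secreted streptokinase activity via plasminogen activation per viability signal from cell pellet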
T4 sequence (P10520 whole entry): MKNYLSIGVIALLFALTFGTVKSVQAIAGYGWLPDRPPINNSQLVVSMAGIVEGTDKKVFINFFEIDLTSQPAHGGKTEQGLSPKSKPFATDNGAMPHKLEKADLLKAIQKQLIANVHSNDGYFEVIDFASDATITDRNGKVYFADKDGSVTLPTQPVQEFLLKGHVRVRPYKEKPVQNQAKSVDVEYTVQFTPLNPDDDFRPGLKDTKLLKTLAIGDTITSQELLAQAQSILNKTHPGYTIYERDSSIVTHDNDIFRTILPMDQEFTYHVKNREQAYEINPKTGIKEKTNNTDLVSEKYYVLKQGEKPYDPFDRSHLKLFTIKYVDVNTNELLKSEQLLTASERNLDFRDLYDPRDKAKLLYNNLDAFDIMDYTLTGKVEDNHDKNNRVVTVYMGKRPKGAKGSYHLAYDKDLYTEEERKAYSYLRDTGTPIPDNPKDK

Streptococcus = test: Group A Streptococcus viability loss, dose response, counter-screen for streptokinase expression inhibitor project, luminescence, BacTiterGlo (AID 1915); assay type: functional, organism-based;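 further: potency for reduction of bacterial viability or growth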
[13] = inhibitors of firefly luciferase expression or activity, dose response, H4 neuroglioma cells, luminescence (AID 1990); assay type: functional, cell-based
[14] = Luminescence Cell-Based Dose Response HTS to Identify Inhibitors of 5'UTR Stem-Loop Driven Prion Protein mRNA Translation in H4 Neuroglioblastoma Cells. [Related pubchem assays: 1827 (Project Summary), 1813 (Primary HTS)]; assay type: functional
[15] = inhibitors of SNCA 5'UTR-driven reporter translation, confirmation, H4 neuroglioma cells, luminescence (AID 1988); assay type: functional, cell-based
[16] = cytotoxicity in HEK-293T cells, dose response, cytotoxicity control for TCR NF-kB inhibitor project, luminescence, T-cell screen hits (AID 489026); assay type: functional, cell-based;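 further: cells exposed to compound about 14 hours before the viability readout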
cells [17] = assay type: functional, cell-based
cells [18] = assay type: functional, cell-based; remark: listed apart in the source

Sequence of Melanocortin receptor 4 (P32245 whole entry): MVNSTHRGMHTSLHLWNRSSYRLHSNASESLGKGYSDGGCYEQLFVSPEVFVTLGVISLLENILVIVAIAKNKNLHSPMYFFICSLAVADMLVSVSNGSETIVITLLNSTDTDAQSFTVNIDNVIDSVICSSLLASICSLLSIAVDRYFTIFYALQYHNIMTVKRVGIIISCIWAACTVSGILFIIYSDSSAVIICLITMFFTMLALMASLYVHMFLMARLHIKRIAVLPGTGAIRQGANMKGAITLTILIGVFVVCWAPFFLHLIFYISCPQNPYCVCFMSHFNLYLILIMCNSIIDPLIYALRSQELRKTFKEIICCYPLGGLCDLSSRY
Sequence of Peroxisome proliferator-activated receptor gamma/Nuclear receptor coactivator 2 (P37231 whole entry): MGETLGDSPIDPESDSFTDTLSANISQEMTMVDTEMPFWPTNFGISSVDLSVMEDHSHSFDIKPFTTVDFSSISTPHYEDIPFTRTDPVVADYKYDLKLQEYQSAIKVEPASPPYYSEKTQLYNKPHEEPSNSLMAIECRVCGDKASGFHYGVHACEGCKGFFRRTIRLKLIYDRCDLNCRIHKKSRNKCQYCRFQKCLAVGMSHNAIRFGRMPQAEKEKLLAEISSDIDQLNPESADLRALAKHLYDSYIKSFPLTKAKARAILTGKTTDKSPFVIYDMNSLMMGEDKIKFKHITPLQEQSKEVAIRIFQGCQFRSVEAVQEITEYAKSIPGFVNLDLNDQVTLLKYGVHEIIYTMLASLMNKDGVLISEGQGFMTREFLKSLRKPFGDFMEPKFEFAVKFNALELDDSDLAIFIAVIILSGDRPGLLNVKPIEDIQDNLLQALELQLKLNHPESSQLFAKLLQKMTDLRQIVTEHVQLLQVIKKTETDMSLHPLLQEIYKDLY
Sequence of Peroxisome proliferator-activated receptor gamma/Nuclear receptor coactivator 2 (Q15596 whole entry, further chain): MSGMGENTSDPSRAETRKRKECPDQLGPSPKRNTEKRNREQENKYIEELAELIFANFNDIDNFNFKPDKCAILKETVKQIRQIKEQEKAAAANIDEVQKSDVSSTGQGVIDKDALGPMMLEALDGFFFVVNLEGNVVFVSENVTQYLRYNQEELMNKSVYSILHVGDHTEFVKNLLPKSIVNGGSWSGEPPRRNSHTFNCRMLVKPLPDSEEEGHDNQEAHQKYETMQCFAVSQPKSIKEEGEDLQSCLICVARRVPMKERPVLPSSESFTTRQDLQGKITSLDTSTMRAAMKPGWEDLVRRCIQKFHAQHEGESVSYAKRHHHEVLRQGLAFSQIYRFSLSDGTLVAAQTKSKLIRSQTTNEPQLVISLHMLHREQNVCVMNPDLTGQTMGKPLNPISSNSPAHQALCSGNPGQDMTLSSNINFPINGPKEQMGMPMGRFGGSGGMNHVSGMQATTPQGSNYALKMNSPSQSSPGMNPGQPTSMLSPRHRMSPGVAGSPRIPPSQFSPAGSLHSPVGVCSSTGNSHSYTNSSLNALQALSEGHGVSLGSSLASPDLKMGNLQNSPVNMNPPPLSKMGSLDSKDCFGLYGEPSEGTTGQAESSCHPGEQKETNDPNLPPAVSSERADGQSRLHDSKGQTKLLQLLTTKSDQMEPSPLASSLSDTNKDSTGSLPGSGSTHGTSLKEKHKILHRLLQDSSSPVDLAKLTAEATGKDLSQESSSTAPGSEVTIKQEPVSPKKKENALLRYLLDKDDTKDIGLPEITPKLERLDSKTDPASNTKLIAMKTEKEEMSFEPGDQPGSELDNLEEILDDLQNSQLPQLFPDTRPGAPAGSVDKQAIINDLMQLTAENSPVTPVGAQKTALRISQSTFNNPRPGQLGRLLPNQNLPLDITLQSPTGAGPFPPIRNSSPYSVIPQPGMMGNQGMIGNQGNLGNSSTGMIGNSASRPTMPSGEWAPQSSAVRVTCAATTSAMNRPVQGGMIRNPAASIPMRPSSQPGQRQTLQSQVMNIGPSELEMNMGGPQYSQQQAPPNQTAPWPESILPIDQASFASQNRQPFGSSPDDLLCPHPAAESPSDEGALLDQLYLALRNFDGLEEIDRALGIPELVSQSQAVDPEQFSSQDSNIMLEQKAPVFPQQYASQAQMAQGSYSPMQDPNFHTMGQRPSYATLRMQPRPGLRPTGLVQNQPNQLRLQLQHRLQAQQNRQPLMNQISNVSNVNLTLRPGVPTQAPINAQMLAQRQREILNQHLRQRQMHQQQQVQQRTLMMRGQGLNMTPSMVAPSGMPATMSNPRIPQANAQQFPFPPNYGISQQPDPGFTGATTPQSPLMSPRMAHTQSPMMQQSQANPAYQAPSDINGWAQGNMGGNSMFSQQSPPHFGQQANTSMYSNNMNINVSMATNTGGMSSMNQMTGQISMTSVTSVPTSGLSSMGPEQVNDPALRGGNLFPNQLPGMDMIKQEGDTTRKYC
Sequence of Peroxisome proliferator-activated receptor gamma/Nuclear receptor coactivator 3 (P37231 whole entry): as the sequence (P37231 whole entry) above
Sequence of Peroxisome proliferator-activated receptor gamma/Nuclear receptor coactivator 3 (Q9Y6Q9 whole entry, further chain): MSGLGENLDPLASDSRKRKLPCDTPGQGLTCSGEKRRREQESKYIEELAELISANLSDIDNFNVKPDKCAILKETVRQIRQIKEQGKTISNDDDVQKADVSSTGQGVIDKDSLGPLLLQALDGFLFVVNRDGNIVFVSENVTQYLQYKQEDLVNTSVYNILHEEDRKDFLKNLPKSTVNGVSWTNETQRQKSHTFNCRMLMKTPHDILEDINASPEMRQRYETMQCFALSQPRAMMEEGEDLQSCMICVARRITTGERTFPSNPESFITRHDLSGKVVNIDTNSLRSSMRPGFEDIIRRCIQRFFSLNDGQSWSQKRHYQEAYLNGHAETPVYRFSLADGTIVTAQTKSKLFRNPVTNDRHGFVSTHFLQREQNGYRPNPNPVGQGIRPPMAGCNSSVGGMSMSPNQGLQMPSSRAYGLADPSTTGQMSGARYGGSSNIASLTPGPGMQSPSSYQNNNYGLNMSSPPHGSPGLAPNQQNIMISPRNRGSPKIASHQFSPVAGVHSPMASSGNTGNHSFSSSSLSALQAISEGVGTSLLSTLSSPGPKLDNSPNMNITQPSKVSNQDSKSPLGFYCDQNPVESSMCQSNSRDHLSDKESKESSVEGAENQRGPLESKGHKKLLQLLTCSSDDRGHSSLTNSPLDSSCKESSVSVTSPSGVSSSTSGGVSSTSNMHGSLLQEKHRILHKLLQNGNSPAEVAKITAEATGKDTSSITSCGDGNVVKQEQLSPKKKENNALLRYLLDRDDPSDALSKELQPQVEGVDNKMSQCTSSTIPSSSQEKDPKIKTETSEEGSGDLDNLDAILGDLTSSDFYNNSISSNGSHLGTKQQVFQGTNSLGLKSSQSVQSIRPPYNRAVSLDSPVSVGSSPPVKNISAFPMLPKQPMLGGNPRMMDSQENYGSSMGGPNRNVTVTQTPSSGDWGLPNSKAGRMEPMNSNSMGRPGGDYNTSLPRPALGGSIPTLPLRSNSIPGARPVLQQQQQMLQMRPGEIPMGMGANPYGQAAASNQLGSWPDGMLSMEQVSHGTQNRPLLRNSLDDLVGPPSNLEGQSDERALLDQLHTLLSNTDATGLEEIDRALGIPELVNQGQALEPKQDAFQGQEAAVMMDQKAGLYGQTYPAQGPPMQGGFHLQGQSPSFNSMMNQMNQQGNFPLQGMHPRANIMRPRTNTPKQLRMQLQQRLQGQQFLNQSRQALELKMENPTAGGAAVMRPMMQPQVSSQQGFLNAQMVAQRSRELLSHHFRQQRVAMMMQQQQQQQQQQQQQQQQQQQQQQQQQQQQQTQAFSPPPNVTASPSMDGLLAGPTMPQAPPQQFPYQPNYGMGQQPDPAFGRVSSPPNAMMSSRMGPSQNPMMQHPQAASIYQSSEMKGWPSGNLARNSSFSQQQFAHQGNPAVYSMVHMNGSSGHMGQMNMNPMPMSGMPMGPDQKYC
Sequence of Paired box protein Pax-8 (Q06710 whole entry): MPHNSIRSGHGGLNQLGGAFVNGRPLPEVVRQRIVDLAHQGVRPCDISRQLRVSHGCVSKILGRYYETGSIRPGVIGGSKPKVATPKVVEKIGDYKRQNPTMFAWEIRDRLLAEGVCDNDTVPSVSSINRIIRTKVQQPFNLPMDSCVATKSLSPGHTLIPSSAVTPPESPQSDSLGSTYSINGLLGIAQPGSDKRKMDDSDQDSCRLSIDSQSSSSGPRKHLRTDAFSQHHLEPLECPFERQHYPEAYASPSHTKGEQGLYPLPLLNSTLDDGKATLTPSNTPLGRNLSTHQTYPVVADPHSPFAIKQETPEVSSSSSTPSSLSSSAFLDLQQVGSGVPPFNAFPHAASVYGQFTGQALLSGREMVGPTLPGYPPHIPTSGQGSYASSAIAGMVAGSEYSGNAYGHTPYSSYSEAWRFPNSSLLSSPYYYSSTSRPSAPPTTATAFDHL

CSc1oc(-c2ccccc2)nc1S(=O)(=O)c1ccc(C)cc1
EC50 [1]: > 79.4 µM (inactive) | EC50 [2]: > 79.4 µM (not active) | EC50 [3]: > 79.4 µM (not active)

Cc1ccc(NC(=O)/C=C/c2ccc([N+](=O)[O-])s2)c(C)c1
EC50 [4]: 1.03 µM (active) | EC50 [5]: 1 µM (active) | AC50 [6]: 1.3 µM (active) | AC50 [7]: 4.64 µM (active) | AC50 (INS1): 4.69 µM (active) | AC50 (Paired box protein Pax-8): 3.16 µM (active)

Cc1nnc(-c2cccc(Br)c2)c2cn(-c3cccc(Br)c3)nc12
EC50 [8]: 1.65 µM (active) | EC50 [9]: > 60 µM (not active) | IC50 (Melanocortin receptor 4): > 64.6 µM (inactive) | IC50 [10]: > 64.6 µM (inactive) | IC50 (Protein skinhead-1): > 100 µM (inactive)

COCC(C)NC(C(=O)Nc1ccc(Cl)c([N+](=O)[O-])c1)c1ccccc1 (stereo unspecified)
EC50 [11]: 5.96 µM (active)

O=C(Nc1nccs1)c1cc(S(=O)(=O)N2CCOCC2)c(Cl)cc1Cl
IC50 (Melanocortin receptor 4): > 64.6 µM (inactive) | IC50 [10]: > 64.6 µM (inactive)

CSc1c(SCc2ccccc2)cnn(Cc2ccccc2)c1=O
EC50 [1]: 2.68 µM (active) | EC50 [12]: 3.38 µM (active) | EC50 [2]: > 79.4 µM (not active) | EC50 (Streptokinase A): > 150 µM (not active) | EC50 [3]: 8.09 µM (active) | EC50 (Streptococcus): 34.3 µM (active)

CC1CCN(c2c(NCc3ccc(C(=O)N4CCc5ccccc54)cc3)c(=O)c2=O)CC1
EC50 [13]: > 60 µM (not active) | EC50 [14]: 12.3 µM (active) | EC50 [15]: 8.86 µM (active) | IC50 [16]: > 80 µM (inactive)

O=C(COC(=O)C(Cc1ccccc1)NC(=O)c1cccs1)NCc1ccccc1 (stereo unspecified)
IC50 (Melanocortin receptor 4): 38.6 µM (inactive) | IC50 [10]: > 64.6 µM (inactive)

O=C(N/N=C\c1cc(Br)ccc1O)c1ccc(S(=O)(=O)N2CCCCC2)cc1
EC50 (cells [17]): > 350 µM (not active) | EC50 [8]: 0.758 µM (active) | EC50 (cells [18]): > 350 µM (not active) | EC50 [9]: > 60 µM (not active) | AC50 [6]: 1.8 µM (active) | AC50 [7]: 1.78 µM (active) | AC50 (INS1): 0.809 µM (active)

From ChEMBL document CHEMBL1201862, “PubChem BioAssay data set” (2004)
